# Assay results published in patent publication US20250367209A1 (SOUTHERN RESEARCH INSTITUTE, priority 2022, published 2025).
# Molecular target: Tau-FynSH3 interaction (Homo sapiens (Human), UniProt P10636)
# Assay: Tau-FynSH3 AlphaScreen
# Format: binding
# Details: not given
# From the text: Human Fyn-SH3 domain with GST-tag at the N-terminus and a Strep-tag II ([…]) at the C-terminus (GST-Fyn-SH3-Strep) was cloned into pPR-IBA1 vector (IBA Lifesciences) (Cochran, et al. (2014) J. Biomol. Screen. 19, 1338-1349). Codon-optimized human 4R2N Tau for E. coli expression with a Strep-tag II at the C-terminus (His-Tau-Strep) was cloned into pET-28a(+) vector (Novagen). The constructs were transformed into E. coli BL-21(DE3) competent cells (Novagen). For GST-Fyn-SH3-Strep purification, a single colony was inoculated in Luria-Bertani (LB) broth at 37° C. overnight. 10 mL cell culture was added into 500 mL LB medium and cultured at 37° C. 0.5 mM Isopropyl β-D-1-thiogalactopyranoside (IPTG) was added into the culture when OD600 reached 0.7. Cells were further cultured at 25° C. for 4 hours and harvested. Cell pellet was resuspended in lysis buffer (20 mM Tris pH 7.9, 300 mM NaCl, 1 mM TCEP) with 1 tablet of EDTA-free protease inhibitors (ThermoFisher) and 1 mg/ml lysozyme. Cells were disrupted by sonication and debris was removed by centrifugation at 9500 rpm for 1 hour. Supernatant was loaded onto a glutathione-sepharose column (Cytiva). The column was washed in lysis buffer and protein eluted in lysis buffer containing 25 mM reduced glutathione. For His-Tau-Strep protein purification, cells were inoculated in LB broth medium and cultured at 37° C. overnight. A 10 mL overnight culture was added to 500 mL of auto-induction medium (Studier, F. W. (2005) Protein Expr Purif 41, 207-34) and cells were cultured at 37° C. for about 5 hours. The temperature was lowered to 18° C., and cells were cultured overnight. Cells were harvested and resuspended in lysis buffer with 20 mM imidazole, protease inhibitors, and lysozyme. Cells were disrupted by sonication and cell pellets were spun down at 9500 rpm for 1 hour. Supernatant was loaded onto Ni-NTA column (Cytiva) and the column was washed in lysis buffer with 20 mM imidazole. His-Tau-Strep protein was eluted in lysis buffer containing 400 mM imidazole. Both eluted GST-Fyn-SH3-Strep and His-Tau-Strep protein solutions were passed through G-25 desalting column (Cytiva) with lysis buffer and loaded onto high capacity Strep-Tactin column (IBA Lifesciences). The columns were washed in Buffer W (IBA Life sciences) and proteins were eluted in Buffer E (IBA life sciences). The eluted proteins were passed through G-25 desalting column again. Both GST-Fyn-Strep and His-Tau-Strep proteins were concentrated and diluted 1:1 in ethylene glycol as a cryoprotectant for storage at −80° C.
# AlphaScreen was conducted with 10 µg/mL of glutathione donor beads (PerkinElmer, Waltham, MA) and nickel chelate acceptor beads (PerkinElmer) in 10 mM Bis-Tris (pH 7.0), 1 mM TCEP, 0.02% casein, and 0.1% Tween-20. Compounds were plated first followed by addition of one the proteins at 600 nM and incubation for 30 min. The second protein was added and incubated for 30 mn, then the beads were added simultaneously and the final mixture was incubated for 2 hours. Experiments were conducted in 384-well plates (6007290; PerkinElmer) and results were read on a PHERAstar plate reader (BMG Labtech, Cary, NC).
# ˜50,000 compounds from the Enamine and Southern Research libraries were screened to identify Tau-FynSH3 interaction inhibitors using an AlphaScreen assay (Cochran, et al. (2014) J. Biomol. Screen. 19, 1338-1349). Compounds that were >3 standard deviations above mean inhibition were selected, yielding 1,852 hits (FIG. 1A). […]. These 39 compounds were tested in a live-cell BRET assay to measure Tau-Fyn interaction in cells. […]. Screen. 19, 1338-1349).
# Tau-FynSH3 interaction, sequence (P10636 other isoform, or with tags, fused parts or gaps): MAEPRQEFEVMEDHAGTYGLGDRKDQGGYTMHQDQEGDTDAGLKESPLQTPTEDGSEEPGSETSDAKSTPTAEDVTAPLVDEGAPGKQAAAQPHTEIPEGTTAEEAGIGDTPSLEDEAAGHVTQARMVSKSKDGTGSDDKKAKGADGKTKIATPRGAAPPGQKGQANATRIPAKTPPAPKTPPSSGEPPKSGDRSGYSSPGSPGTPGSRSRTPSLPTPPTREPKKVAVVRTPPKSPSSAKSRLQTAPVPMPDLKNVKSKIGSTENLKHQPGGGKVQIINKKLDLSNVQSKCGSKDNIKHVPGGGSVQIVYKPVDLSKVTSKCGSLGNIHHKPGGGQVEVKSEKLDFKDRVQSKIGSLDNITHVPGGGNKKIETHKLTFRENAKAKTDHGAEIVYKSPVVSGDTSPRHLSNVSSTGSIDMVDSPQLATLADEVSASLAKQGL
row,AlphaScreen activity (in words),SMILES
1,lost activity,O=C(CN1CCSc2ccccc21)Nc1ncc(-c2ccccn2)o1 [compound 68]

# Same assay, conditions: Table 2; Tau-FynSH3 inhibitory activity in the AlphaScreen; read-out: IC50
row,SMILES,IC50
1,"O=C(CN1C(=O)CCc2ccccc21)Nc1nnc(-c2ccccn2)[nH]1 [compound no. 2, 2-(2-OXO-3,4-DIHYDROQUINOLIN-1(2H)-YL)-N-(5-(PYRIDIN-2-YL)-4H-1,2,4-TRIAZOL-3-YL)ACETAMIDE]",2.72 µM
2,O=C(CN1CCSc2ccccc21)Nc1ncc(-c2ccccn2)o1 [compound 68],> 100 µM

# Results, then the molecule that gave them:
row,IC50,SMILES
1,> 100 µM,"O=C(CCN1C(=O)CCc2ccccc21)Nc1nnc(-c2ccccn2)[nH]1 [compound no. 3, 3-(2-Oxo-3,4-DIHYDROQUINOLIN-1(2H)-YL)-N-(5-(PYRIDIN-2-YL)-4H-1,2,4-TRIAZOL-3-YL)PROPANAMIDE]"
2,> 100 µM,"O=C(CCN1C(=O)COc2ccccc21)Nc1nnc(-c2ccccn2)[nH]1 [compound 43, 3-(3-Oxo-2,3-DIHYDRO-4H-BENZO[B][1,4]OXAZIN-4-YL)-N-(5-(PYRIDIN-2-YL)-4H-1,2,4-TRIAZOL-3-YL)PROPANAMIDE]"

# Same assay, conditions: Table 3
row,SMILES,Alpha screen IC50 (μM)
1,"O=C(CCN1C(=O)CSc2ccccc21)Nc1ccc(-c2ncc[nH]2)cc1 [compound 41, N-(4-(1H-IMIDAZOL-2-YL)PHENYL)-3-(3-Oxo-2,3-DIHYDRO-4H-BENZO[B][1,4]THIAZIN-4-YL)PROPANAMIDE]",Inactive
2,"O=C(CCN1C(=O)CSc2ccccc21)Nc1ccc(-c2ccccn2)cc1 [compound 38, 3-(3-Oxo-2,3-DIHYDRO-4H-BENZO[B][1,4]THIAZIN-4-YL)-N-(4-(PYRIDIN-2-YL)PHENYL)PROPANAMIDE]",Inactive
3,"O=C(CCN1C(=O)CSc2ccccc21)Nc1ccc(-c2ccccc2)cc1 [compound 39, N-([1,1′-BIPHENYL]-4-YL)-3-(3-Oxo-2,3-DIHYDRO-4H-BENZO[B][1,4]THIAZIN-4-YL)PROPANAMIDE]",Inactive
4,"O=C(CN1C(=O)CSc2ccccc21)Nc1cccc(C(=O)N2CCOCC2)c1 [compound 44, N-(3-(MORPHOLINE-4-CARBONYL)PHENYL)-2-(3-OXO-2,3-DIHYDRO-4H-BENZO[B][1,4]THIAZIN-4-YL)ACETAMIDE]",Inactive
5,"O=C(CCN1C(=O)CSc2ccccc21)Nc1ccc(-c2cncnc2)cc1 [compound 42, 3-(3-OXO-2,3-DIHYDRO-4H-BENZO[B][1,4]THIAZIN-4-YL)-N-(4-(PYRIMIDIN-5-YL)PHENYL) PROPANAMIDE]",Inactive
6,"O=C1CCc2ccccc2N1Cc1nnc(-c2ccccn2)[nH]1 [compound 29, 1-((5-(PYRIDIN-2-YL)-4H-1,2,4-TRIAZOL-3-YL)METHYL)-3,4-DIHYDROQUINOLIN-2(1H)-ONE]",Inactive
7,"O=C1COc2ccccc2N1Cc1nnc(-c2ccccn2)[nH]1 [compound 28, 4-((5-(PYRIDIN-2-YL)-4H-1,2,4-TRIAZOL-3-YL)METHYL)-2H-BENZO[B][1,4]OXAZIN-3(4H)-ONE]",Inactive
8,"O=C(CCN1C(=O)CSc2ccccc21)Nc1ccccc1C(F)(F)F [compound 36, 3-(3-OXO-2,3-DIHYDRO-4H-BENZO[B][1,4]THIAZIN-4-YL)-N-(2-(TRIFLUOROMETHYL)PHENYL) PROPANAMIDE]",Inactive

# Second part, the molecule after the results:
row,Alpha screen IC50 (μM),SMILES
1,Inactive,"O=C(CN1C(=O)CSc2ccccc21)Nc1nnc(-c2cccnc2)[nH]1 [compound 24, 2-(3-OXO-2,3-DIHYDRO-4H-BENZO[B][1,4]THIAZIN-4-YL)-N-(5-(PYRIDIN-3-YL)-4H-1,2,4-TRIAZOL-3-YL)ACETAMIDE]"
2,Inactive,"O=C(CCN1C(=O)CSc2ccccc21)Nc1nnn[nH]1 [compound 40, 3-(3-OXO-2,3-DIHYDRO-4H-BENZO[B][1,4]THIAZIN-4-YL)-N-(1H-TETRAZOL-5-YL)PROPANAMIDE]"
3,Inactive,"O=C(CCN1C(=O)COc2ccccc21)Nc1nnc(-c2ccccn2)[nH]1 [compound 43, 3-(3-Oxo-2,3-DIHYDRO-4H-BENZO[B][1,4]OXAZIN-4-YL)-N-(5-(PYRIDIN-2-YL)-4H-1,2,4-TRIAZOL-3-YL)PROPANAMIDE]"
4,Inactive,"O=C(CN1C(=O)CSc2ccccc21)Nc1nnc(-c2ccncc2)[nH]1 [compound 25, 2-(3-Oxo-2,3-DIHYDRO-4H-BENZO[B][1,4]THIAZIN-4-YL)-N-(5-(PYRIDIN-4-YL)-4H-1,2,4-TRIAZOL-3-YL)ACETAMIDE]"

# Same assay, conditions: Table 3; read-out: Alpha screen IC50
row,IC50,SMILES
1,3.45 µM,"O=C(CCN1C(=O)CSc2cc(C(F)(F)F)ccc21)Nc1nnc(-c2ccccn2)[nH]1 [compound 11, 3-(3-Oxo-7-(TRIFLUOROMETHYL)-2H-BENZO[B][1,4]THIAZIN-4(3H)-YL)-N-(5-(PYRIDIN-2-YL)-4H-1,2,4-TRIAZOL-3-YL)PROPANAMIDE]"
2,1.4 µM,"Cc1ccc2c(c1)CCC(=O)N2CC(=O)Nc1nnc(-c2ccccn2)[nH]1 [compound 54, 2-(6-METHYL-2-OXO-3,4-DIHYDROQUINOLIN-1(2H)-YL)-N-(5-(PYRIDIN-2-YL)-4H-1,2,4-TRIAZOL-3-YL)ACETAMIDE]"
3,1.6 µM,"COc1ccc2c(c1)N(CC(=O)Nc1nnc(-c3ccccn3)[nH]1)C(=O)CO2 [compound 49, 2-(6-METHOXY-3-OXO-2,3-DIHYDRO-4H-BENZO[B][1,4]OXAZIN-4-YL)-N-(5-(PYRIDIN-2-YL)-4H-1,2,4-TRIAZOL-3-YL)ACETAMIDE]"
4,1.6 µM,"O=C(CN1C(=O)CCc2cc(F)ccc21)Nc1nnc(-c2ccccn2)[nH]1 [compound 51, 2-(6-FLUORO-2-OXO-3,4-DIHYDROQUINOLIN-1(2H)-YL)-N-(5-(PYRIDIN-2-YL)-4H-1,2,4-TRIAZOL-3-YL)ACETAMIDE]"
5,2.96 µM,"O=C(CN1C(=O)COc2cc(F)ccc21)Nc1nnc(-c2ccccn2)[nH]1 [compound 46, 2-(7-FLUORO-3-OXO-2,3-DIHYDRO-4H-BENZO[B][1,4]OXAZIN-4-YL)-N-(5-(PYRIDIN-2-YL)-4H-1,2,4-TRIAZOL-3-YL)ACETAMIDE]"
6,6.78 µM,"O=C(CCN1C(=O)CSc2ccc(Cl)cc21)Nc1nnc(-c2ccccn2)[nH]1 [compound 10, 3-(6-CHLORO-3-OXO-2H-BENZO[B][1,4]THIAZIN-4(3H)-YL)-N-(5-(PYRIDIN-2-YL)-4H-1,2,4-TRIAZOL-3-YL)PROPANAMIDE]"
7,3.24 µM,"O=C(CCN1C(=O)CSc2ccccc21)Nc1ncc(-c2ccccn2)[nH]1 [compound no. 5, 3-(3-Oxo-2H-BENZO[B][1,4]THIAZIN-4(3H)-YL)-N-(5-(PYRIDIN-2-YL)-1H-IMIDAZOL-2-YL)PROPANAMIDE]"
8,1.6 µM,"COc1ccc2c(c1)N(CC(=O)Nc1nnc(-c3ccccn3)[nH]1)C(=O)CC2 [compound 50, 2-(7-METHOXY-2-OXO-3,4-DIHYDROQUINOLIN-1(2H)-YL)-N-(5-(PYRIDIN-2-YL)-4H-1,2,4-TRIAZOL-3-YL)ACETAMIDE]"
9,5.42 µM,"O=C(CN1C(=O)CSc2cc(C(F)(F)F)ccc21)Nc1nnc(-c2ccccn2)[nH]1 [compound 17, 2-(3-OXO-7-(TRIFLUOROMETHYL)-2H-BENZO[B][1,4]THIAZIN-4(3H)-YL)-N-(5-(PYRIDIN-2-YL)-4H-1,2,4-TRIAZOL-3-YL)ACETAMIDE]"
10,1.6 µM,"Cc1ccc2c(c1)OCC(=O)N2CC(=O)Nc1nnc(-c2ccccn2)[nH]1 [compound 53, 2-(7-METHYL-3-OXO-2,3-DIHYDRO-4H-BENZO[B][1,4]OXAZIN-4-YL)-N-(5-(PYRIDIN-2-YL)-4H-1,2,4-TRIAZOL-3-YL)ACETAMIDE]"
11,10.6 µM,"O=c1sc2ccccc2n1Cc1nnc(-c2ccccn2)[nH]1 [compound 30, 3-((5-(PYRIDIN-2-YL)-4H-1,2,4-TRIAZOL-3-YL)METHYL)BENZO[D]THIAZOL-2(3H)-ONE]"

# Same assay, conditions: compared to compound no. 20
row,SMILES,lower / reduced AlphaScreen activity
1,O=C(CN1CCCCC1)Nc1nnc(-c2ccccn2)[nH]1 [compound 65],8-10 fold
2,O=C(CN1CCOCC1)Nc1nnc(-c2ccccn2)[nH]1 [compound 66],8-10 fold

# Same assay, conditions: compared to compound no. 55
row,SMILES,improvement in activity in the Tau-FynSH3 AlphaScreen
1,O=C(CN1C(=O)CSc2ccccc21)Nc1nnc(-c2ccccn2)[nH]1 [compound no. 56],five-fold improvement in activity

# Same assay, conditions: read-out: IC50 in the Tau-FynSH3 AlphaScreen
row,SMILES,IC50
1,O=C(CN1C(=O)CSc2ccccc21)Nc1nnc(-c2ccccn2)[nH]1 [compound no. 56],0.84 µM
